Data as given in ChEMBL document CHEMBL1201862, “PubChem BioAssay data set” (2004).
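Briefly, cells in 96-well plates were exposed to five compound concentrations for 48 h, and endpoints were estimated by linear interpolation. GI50 = concentration required for 50% inhibition of growth.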 The source made the active and inactive calls. No stated cut-off is given here; in the data, active = GI50 up to about 1.1 µM and inactive = higher.

Assays:
Experiment in all cases: NCI tumour cell line growth inhibition, 48 h
ACHN = system: ACHN
CCRF-CEM = system: CCRF-CEM
K562 = system: K562
MDA-MB-435 = system: MDA-MB-435
BT-549 = system: BT-549
RXF 393 = system: RXF 393
SF-268 = system: SF-268
COLO 205 = system: COLO 205
MOLT-4 = system: MOLT-4
DU-145 = system: DU-145
SNB-75 = system: SNB-75
HCT-116 = system: HCT-116
HCC 2998 = system: HCC 2998
OVCAR-3 = system: OVCAR-3
NCI/ADR-RES = system: NCI/ADR-RES
OVCAR-8 = system: OVCAR-8
Malme-3M = system: Malme-3M
RPMI-8226 = system: RPMI-8226
A498 = system: A498

SMILES	GI50 (ACHN)	GI50 (CCRF-CEM)	GI50 (K562)	GI50 (MDA-MB-435)	GI50 (BT-549)	GI50 (RXF 393)	GI50 (SF-268)	GI50 (COLO 205)	GI50 (MOLT-4)	GI50 (DU-145)	GI50 (SNB-75)	GI50 (HCT-116)	GI50 (HCC 2998)	GI50 (OVCAR-3)	GI50 (NCI/ADR-RES)	GI50 (OVCAR-8)	GI50 (Malme-3M)	GI50 (RPMI-8226)	GI50 (A498)
CCOC(=O)CC[C@@H](NC(=O)c1ccc(NCc2ccc3nc(OC)c(OC)nc3c2)cc1)C(=O)OCC	22.3 µM (inactive)	32.6 µM (inactive)	46.8 µM (inactive)	31.4 µM (inactive)	> 67.3 µM (inactive)	25.5 µM (inactive)	33.4 µM (inactive)	28.6 µM (inactive)	16.6 µM (inactive)	58.2 µM (inactive)	14.5 µM (inactive)	> 100 µM (inactive)	33.6 µM (inactive)	17.3 µM (inactive)	> 100 µM (inactive)	> 100 µM (inactive)	19.5 µM (inactive)	> 94.8 µM (inactive)	–
CC1(C)C=[N+]([O-])C(C)(C)N1	> 100 µM (inactive)	> 100 µM (inactive)	> 100 µM (inactive)	> 100 µM (inactive)	–	> 100 µM (inactive)	> 100 µM (inactive)	> 100 µM (inactive)	> 100 µM (inactive)	> 100 µM (inactive)	> 100 µM (inactive)	> 100 µM (inactive)	> 100 µM (inactive)	> 100 µM (inactive)	> 100 µM (inactive)	> 100 µM (inactive)	> 100 µM (inactive)	> 100 µM (inactive)	–
COC(=O)C(=O)C(C(=O)C(=O)Nc1ccccc1C(=O)OC)c1nc2ccc(C(=O)c3ccccc3)cc2nc1O (centres undefined)	52.6 µM (inactive)	–	36.1 µM (inactive)	38.9 µM (inactive)	> 100 µM (inactive)	33.4 µM (inactive)	56.9 µM (inactive)	–	–	–	24.2 µM (inactive)	> 100 µM (inactive)	–	> 100 µM (inactive)	18.8 µM (inactive)	39.4 µM (inactive)	76.9 µM (inactive)	51.9 µM (inactive)	81.5 µM (inactive)
CC(=O)NC1C(CO)O[C@@H]2OC(C)(C)O[C@H]12 (some centres undefined)	> 100 µM (inactive)	> 100 µM (inactive)	–	> 100 µM (inactive)	> 100 µM (inactive)	–	> 100 µM (inactive)	–	> 100 µM (inactive)	–	> 100 µM (inactive)	> 100 µM (inactive)	> 100 µM (inactive)	> 100 µM (inactive)	> 100 µM (inactive)	> 100 µM (inactive)	> 100 µM (inactive)	> 100 µM (inactive)	> 100 µM (inactive)
COc1ccccc1C1CC(=O)CC(c2ccccc2OC)C12C(=O)NC(=S)NC2=O (centres undefined)	28.2 µM (inactive)	46.6 µM (inactive)	47.6 µM (inactive)	25.4 µM (inactive)	> 100 µM (inactive)	59.4 µM (inactive)	> 100 µM (inactive)	32.6 µM (inactive)	35.7 µM (inactive)	57.9 µM (inactive)	56 µM (inactive)	80.5 µM (inactive)	62.7 µM (inactive)	80.2 µM (inactive)	> 100 µM (inactive)	> 100 µM (inactive)	79.6 µM (inactive)	19.9 µM (inactive)	–
CCN(CC)C(=O)C1=C(C)NC(C)=C(C(=O)N(CC)CC)C1	> 100 µM (inactive)	> 100 µM (inactive)	41.4 µM (inactive)	81.1 µM (inactive)	–	> 100 µM (inactive)	53 µM (inactive)	> 100 µM (inactive)	> 100 µM (inactive)	> 100 µM (inactive)	14.5 µM (inactive)	> 100 µM (inactive)	> 100 µM (inactive)	> 100 µM (inactive)	–	–	> 100 µM (inactive)	> 100 µM (inactive)	> 100 µM (inactive)
O=C(/C=C(\S/C=C(/c1ccccc1)N1CCn2c(C(=O)c3ccccc3)c(C(=O)c3ccccc3)c(C(=O)c3ccccc3)c21)C(=O)c1ccccc1)c1ccccc1	> 10 µM (inactive)	> 10 µM (inactive)	> 10 µM (inactive)	> 10 µM (inactive)	> 10 µM (inactive)	–	> 10 µM (inactive)	> 10 µM (inactive)	> 10 µM (inactive)	> 10 µM (inactive)	> 10 µM (inactive)	> 10 µM (inactive)	> 10 µM (inactive)	> 10 µM (inactive)	> 10 µM (inactive)	> 10 µM (inactive)	> 10 µM (inactive)	> 10 µM (inactive)	–
O=c1cnc2cc3ccccc3cc2[nH]1	> 100 µM (inactive)	> 100 µM (inactive)	> 100 µM (inactive)	> 100 µM (inactive)	> 100 µM (inactive)	> 100 µM (inactive)	> 100 µM (inactive)	> 100 µM (inactive)	> 100 µM (inactive)	–	37.8 µM (inactive)	> 100 µM (inactive)	> 100 µM (inactive)	> 100 µM (inactive)	> 100 µM (inactive)	> 100 µM (inactive)	> 100 µM (inactive)	> 100 µM (inactive)	> 100 µM (inactive)
CC(C)Cc1cnc(CC(C)C)c(=O)[nH]1	> 100 µM (inactive)	> 100 µM (inactive)	> 100 µM (inactive)	> 100 µM (inactive)	> 100 µM (inactive)	> 100 µM (inactive)	> 100 µM (inactive)	> 100 µM (inactive)	> 100 µM (inactive)	> 100 µM (inactive)	> 100 µM (inactive)	> 100 µM (inactive)	> 100 µM (inactive)	> 100 µM (inactive)	–	> 100 µM (inactive)	–	0.705 µM (active)	> 100 µM (inactive)
O=C1CS(=O)(=O)C(c2cccc(Oc3ccccc3)c2)N1c1cc(Cl)ccc1Cl (centres undefined)	19.7 µM (inactive)	15.4 µM (inactive)	27.4 µM (inactive)	12.1 µM (inactive)	19 µM (inactive)	–	23.1 µM (inactive)	30.2 µM (inactive)	39.3 µM (inactive)	17.9 µM (inactive)	14.6 µM (inactive)	20.2 µM (inactive)	18.8 µM (inactive)	19 µM (inactive)	25.7 µM (inactive)	19.8 µM (inactive)	47 µM (inactive)	–	–
NC(Cc1ccc2nc3c4ccccc4c(=O)cc-3oc2c1)C(=O)O (centres undefined)	> 100 µM (inactive)	> 100 µM (inactive)	> 100 µM (inactive)	18.2 µM (inactive)	> 100 µM (inactive)	> 100 µM (inactive)	> 100 µM (inactive)	20.9 µM (inactive)	–	> 100 µM (inactive)	65.8 µM (inactive)	> 100 µM (inactive)	> 100 µM (inactive)	74.1 µM (inactive)	> 100 µM (inactive)	–	14.8 µM (inactive)	> 100 µM (inactive)	–
COc1ccccc1-n1cnc2c1=NC(C)(C)NC=2C(N)=O	> 100 µM (inactive)	> 100 µM (inactive)	> 100 µM (inactive)	> 100 µM (inactive)	–	> 100 µM (inactive)	> 100 µM (inactive)	> 100 µM (inactive)	–	> 100 µM (inactive)	> 100 µM (inactive)	> 100 µM (inactive)	> 100 µM (inactive)	> 100 µM (inactive)	> 100 µM (inactive)	> 100 µM (inactive)	> 100 µM (inactive)	> 100 µM (inactive)	> 100 µM (inactive)
Cc1nc(-n2nc(-c3ccccc3)cc2-c2ccccc2)sc1C(=O)/C=C/c1ccc(Cl)cc1	20.7 µM (inactive)	17.3 µM (inactive)	> 10 µM (inactive)	–	–	12.7 µM (inactive)	29 µM (inactive)	16.5 µM (inactive)	11.7 µM (inactive)	–	6.1 µM (inactive)	–	16.4 µM (inactive)	15.9 µM (inactive)	–	24.8 µM (inactive)	22.4 µM (inactive)	5.66 µM (inactive)	23.2 µM (inactive)
CC(=O)Oc1cc2c(cc1OC(C)=O)[C@H]1CC[C@]3(C)[C@@H](OC(C)=O)CC[C@H]3[C@@H]1CC2	3.56 µM (inactive)	–	2.23 µM (inactive)	–	1.99 µM (inactive)	4.5 µM (inactive)	4.66 µM (inactive)	3.43 µM (inactive)	–	3.15 µM (inactive)	0.162 µM (active)	–	7.71 µM (inactive)	2.21 µM (inactive)	9.53 µM (inactive)	6.7 µM (inactive)	–	1.92 µM (inactive)	11.8 µM (inactive)
COCOCC1CCCN1CN1CCC[C@H]1COCOC (some centres undefined)	> 100 µM (inactive)	39.2 µM (inactive)	> 100 µM (inactive)	> 100 µM (inactive)	–	–	> 100 µM (inactive)	77.8 µM (inactive)	50.4 µM (inactive)	42.8 µM (inactive)	> 100 µM (inactive)	26.9 µM (inactive)	–	> 100 µM (inactive)	> 100 µM (inactive)	> 100 µM (inactive)	–	33.8 µM (inactive)	> 100 µM (inactive)
C=C1C(=O)O[C@H]2C1C[C@H](O)/C(C)=C/CC[C@@]1(C)O[C@H]21 (some centres undefined)	8.38 µM (inactive)	3.04 µM (inactive)	8.53 µM (inactive)	17.8 µM (inactive)	–	15 µM (inactive)	29.4 µM (inactive)	0.782 µM (active)	2.59 µM (inactive)	21.2 µM (inactive)	32.3 µM (inactive)	14.8 µM (inactive)	14.4 µM (inactive)	–	14.6 µM (inactive)	18 µM (inactive)	6.14 µM (inactive)	5.2 µM (inactive)	–
Cc1ccccc1-c1nc2c(N)nc(N)nc2nc1N	5.6 µM (inactive)	4.74 µM (inactive)	0.723 µM (active)	5.36 µM (inactive)	> 100 µM (inactive)	–	8.38 µM (inactive)	25.5 µM (inactive)	3.77 µM (inactive)	8.17 µM (inactive)	22.3 µM (inactive)	1.67 µM (inactive)	25.2 µM (inactive)	> 100 µM (inactive)	27 µM (inactive)	14.1 µM (inactive)	–	> 100 µM (inactive)	–
